Experiments:
[1] = test system: mice; details: 13 month old mice, administered directly to the brains; cited from earlier work
[2] = test system: PNET2 cells; test: Neuritic sprouting and neuronal differentiation in PNET2 cells; format: cell-based; details: for NTP species expression associated with neuritic growth/sprouting: PNET2 and SH-Sy5y cells (not separated); for neuritic sprouting and neuronal differentiation: PNET2 cells
Text: (§1) Neuritic sprouting and neuronal differentiation were induced in PNET2 and SH-Sy5y cells by insulin, PMA, or RA stimulation. […] Thus, expression of the immature or fetal forms of NTP are regulated by mechanisms and growth factors distinct from those involved in modulating expression of the 21 kD and 26 kD NTP molecules. Therefore, expression of fetal NTP molecules/genes can be mediated through the IRS-1 cascade, whereas expression of adult brain/AD-associated NTP genes can be regulated mainly through protein kinase C pathways.

[3] = test system: SH-Sy5y cells; test: Neuritic sprouting and neuronal differentiation in SH-Sy5y cells; format: cell-based
Text: as §1

[4] = test system: PNET1 cells; test: Insulin responsiveness, NTP modulation and signal transduction in PNET1 cells; format: cell-based
Text: Insulin is an important mediator of growth and differentiation in CNS neurons.
Correspondingly, the insulin-stimulated association between PI3 kinase and phosphorylated IRS-1 was also impaired in PNET1 cells. In essence, impaired insulin-mediated tyrosyl phosphorylation of IRS-1 in PNET1 cells halted activation of the insulin signal transduction cascade, and subsequent events leading to modulated gene (NTP) expression. […] The results were confirmed by absent association between PI3 kinase and IRS-1-PY in PNET1 cells after insulin stimulation.

[5] = test system: PNET2 cells; test: Insulin stimulated differentiation and NTP expression in PNET2 cells; format: cell-based

| Compound | animals showing a delay of about two months in any memory deficit [1] | animals that never develop a memory deficit [1] [%] | NTP species expression associated with neuritic growth/sprouting [2] | neuritic sprouting and neuronal differentiation [2] | neuritic sprouting and neuronal differentiation [3] | induction of differentiation [4] | insulin modulation of NTP [4] | insulin receptor phosphorylation [4] | insulin-mediated tyrosyl phosphorylation of IRS-1 [4] | insulin-stimulated association between PI3 kinase and phosphorylated IRS-1 [4] | synthesis and steady state levels of all five NTP species ([5]; following the transient increases) | levels of the 39 kD, 18 kD and 15 kD NTP species ([5]; insulin stimulated differentiation) | phosphorylation of IRS-1, up-regulation of NTP, neuronal differentiation ([5]; insulin stimulation) |
| --- | --- | --- | --- | --- | --- | --- | --- | --- | --- | --- | --- | --- | --- |
| O=C(CCn1cnc2c(=O)[nH]cnc21)Nc1ccc(C(=O)[O-])cc1.[K+] [AIT-082] | about 50% | 50 |  |  |  |  |  |  |  |  |  |  |  |
| CCCCCCCCCCCCCC(=O)O[C@@H]1[C@@H](C)[C@@]2(O)[C@@H](C=C(CO)C[C@]3(O)C(=O)C(C)=C[C@@H]23)[C@@H]2C(C)(C)[C@]12OC(C)=O [PMA] |  |  | modulated expression of the 21 kD and 26 kD NTP species | induced | induced |  |  |  |  |  |  |  |  |
| CC1=C(/C=C/C(C)=C/C=C/C(C)=C/C(=O)O)C(C)(C)CCC1 [RA] |  |  | modulated expression of the 21 kD and 26 kD NTP species | induced | induced |  |  |  |  |  |  |  |  |
| Insulin: Insulin, an important mediator of growth and differentiation in CNS neurons |  |  | increased expression of the fetal brain and PNET-dominant forms of NTP (15 kD and 18 kD) | induced | induced | failure of insulin to induce differentiation | absent insulin modulation of NTP | normal insulin receptor phosphorylation | impaired | also impaired | sustained increases | rapid (within 10 minutes) but transient increases | responded to insulin stimulation with phosphorylation of IRS-1, up-regulation of NTP, and neuronal differentiation |
